Assay results: patent publication US10759794B2, “2-phenyl-3-(piperazinomethyl)imidazo[1,2-A]pyridine derivatives as blockers of task-1 and task-2 channels, for the treatment of sleep-related breathing disorders” (BAYER PHARMA AKTIENGESELLSCHAFT, priority 2015, dated 2020)
Values belong to the compound of their own block, whether it stands above or below them.

Tests used:
Format in all cases: cell-based
[1] = molecular target: T1, human TASK-1 (Homo sapiens (Human), UniProt O14649); assay: Two-electrode voltage clamp analysis of human TASK-1 channels in Xenopus laevis oocytes
T1 sequence (O14649 whole entry): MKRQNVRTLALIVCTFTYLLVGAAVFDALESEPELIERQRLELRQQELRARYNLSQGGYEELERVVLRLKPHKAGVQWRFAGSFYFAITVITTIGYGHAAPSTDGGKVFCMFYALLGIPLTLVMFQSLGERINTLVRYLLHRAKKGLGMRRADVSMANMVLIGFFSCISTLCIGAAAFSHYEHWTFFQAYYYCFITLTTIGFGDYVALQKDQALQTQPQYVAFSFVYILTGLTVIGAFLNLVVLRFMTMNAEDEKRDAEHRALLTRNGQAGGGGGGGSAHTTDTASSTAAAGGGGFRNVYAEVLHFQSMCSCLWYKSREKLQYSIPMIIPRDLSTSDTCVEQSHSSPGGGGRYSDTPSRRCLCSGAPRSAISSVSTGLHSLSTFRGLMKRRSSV
Experimental: (§1) B-1. In Vitro Electrophysiological Analysis of the Human TASK-1 and TASK-3 Channels Via Two-Electrode Voltage Clamp Technique in Xenopus laevis Oocytes
(§2) Xenopus laevis oocytes were selected as described elsewhere in an exemplary manner [Decher et al., FEBS Lett. 492, 84-89 (2001)]. Subsequently, the oocytes were injected with 0.5-5 ng of a cRNA solution coding for TASK-1 or TASK-3. For the electrophysiological analysis of the channel proteins expressed in the oocytes, the two-electrode voltage clamp technique [Stühmer, Methods Enzymol. 207, 319-339 (1992)] was used. The measurements were carried out as described [Decher et al., FEBS Lett. 492, 84-89 (2001)] at room temperature (21-22° C.) using a Turbo TEC 10CD amplifier (NPI), recorded at 2 kHz and filtered with 0.4 kHz. Substance administration was performed using a gravitation-driven perfusion system. Here, the oocyte is located in a measuring chamber and exposed to the solvent stream of 10 ml/min. The level in the measuring chamber is monitored and regulated by sucking off the solution using a peristaltic pump.

[2] = molecular target: T2, human TASK-3 (Homo sapiens (Human), UniProt Q9NPC2); assay: Two-electrode voltage clamp analysis of human TASK-3 channels in Xenopus laevis oocytes
T2 sequence (Q9NPC2 whole entry): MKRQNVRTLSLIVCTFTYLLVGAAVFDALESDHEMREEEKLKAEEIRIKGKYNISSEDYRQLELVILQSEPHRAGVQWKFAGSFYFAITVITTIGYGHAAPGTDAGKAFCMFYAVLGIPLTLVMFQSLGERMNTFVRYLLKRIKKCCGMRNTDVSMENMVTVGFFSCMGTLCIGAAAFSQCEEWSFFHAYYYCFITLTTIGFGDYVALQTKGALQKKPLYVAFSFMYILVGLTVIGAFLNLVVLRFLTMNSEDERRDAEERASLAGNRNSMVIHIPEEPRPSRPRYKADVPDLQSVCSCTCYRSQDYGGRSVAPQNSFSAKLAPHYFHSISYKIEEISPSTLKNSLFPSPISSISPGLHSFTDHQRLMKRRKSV
Experimental: as §1, §2

[3] = molecular target: T1, human TASK-1; assay: Inhibition of recombinant TASK-1 in stably transfected CHO cells (voltage-sensitive dye, FLIPR)
Experimental: (§3) B-2. Inhibition of Recombinant TASK-1 and TASK-3 In Vitro
(§4) The investigations on the inhibition of the recombinant TASK-1 and TASK-3 channels were carried out using stably transfected CHO cells. Here, the compounds according to the invention were tested with administration of 40 mM of potassium chloride in the presence of a voltage-sensitive dye using the method described in detail in the following references [Whiteaker et al., Validation of FLIPR membrane potential dye for high-throughput screening of potassium channel modulators, J. Biomol. Screen. 6 (5), 305-312 (2001); Molecular Devices FLIPR Application Note: Measuring membrane potential using the FLIPR® membrane potential assay kit on Fluorometric Imaging Plate Reader (FLIPR®) systems, http://www.moleculardevices.com/reagents-supplies/assay-kits/ion-channels/flipr-membrane-potential-assay-kits]. The activity of the test substances was determined as their ability to inhibit a depolarization induced in the recombinant cells by 40 mM potassium chloride. The concentration which can block half of this depolarization is referred to as IC50.

[4] = molecular target: T2, human TASK-3; assay: Inhibition of recombinant TASK-3 in stably transfected CHO cells (voltage-sensitive dye, FLIPR)
Experimental: as §3, §4

[5] = oocytes, voltage clamp, Table 1B
[6] = oocytes, voltage clamp, comparative compounds, Table 1B
[7] = Xenopus laevis oocytes, two-electrode voltage clamp, room temperature, Table 1A
[8] = depolarization induced by 40 mM potassium chloride, Table 2A
[9] = 40 mM potassium chloride, comparative compounds, Table 2B

SMILES: CC(C)Oc1cccc(C(=O)N2CCN(Cc3c(-c4ccc(Cl)cc4)nc4ccccn34)CC2)n1 [Example 39]
IC50 [1, 7]: 13.4 ± 0.9 nM
IC50 [3, 8]: 440 nM
IC50 [2, 7]: 6.2 ± 1.1 nM
IC50 [4, 8]: 56 nM

SMILES: O=C(C1CCCC1)N1CCN(Cc2c(-c3ccc(Br)cc3)nc3ccccn23)CC1 [Example 1, (4-{[2-(4-Bromophenyl)imidazo[,2-a]pyridin-3-yl]methyl}piperazin-1-yl)(cyclopentyl)methanone]
IC50 [1, 7]: 7.9 ± 0.5 nM
IC50 [3, 8]: 77 nM
IC50 [2, 7]: 1.04 ± 0.23 nM
IC50 [4, 8]: 17 nM

SMILES: O=C(c1ccccc1F)N1CCN(Cc2c(-c3ccc(Br)cc3)nc3ccccn23)CC1 [Example 4, (4-{[2-(4-Bromophenyl)imidazo [1,2-a]pyridin-3-yl]methyl}piperazin-1-yl)(2-fluorophenyl)methanone]
IC50 [1, 7]: 9.7 ± 0.9 nM
IC50 [3, 8]: 172 nM
IC50 [2, 7]: 15 ± 2.1 nM
IC50 [4, 8]: 46 nM

SMILES: COc1cccc(C(=O)N2CCN(Cc3c(-c4ccc(Cl)cc4)nc4ccccn34)CC2)n1 [Example 3, (4-{[2-(4-Chlorophenyl)imidazo [1,2-a]pyridin-3-yl]methyl}piperazin-1-yl)(6-methoxypyridin-2-yl)methanone]
IC50 [1, 7]: 4.2 ± 0.6 nM
IC50 [3, 8]: 139 nM
IC50 [2, 7]: 27.9 ± 4 nM
IC50 [4, 8]: 28 nM

SMILES: O=C(C1CCCCC1)N1CCN(Cc2c(-c3ccc(Cl)cc3)nc3ccccn23)CC1 [Example 17]
IC50 [3, 8]: 774 nM
IC50 [4, 8]: 510 nM

SMILES: O=C(C1CCCCC1)N1CCN(Cc2c(-c3ccc(Br)cc3)nc3ccccn23)CC1 [Example 9]
IC50 [3, 8]: 232 nM
IC50 [4, 8]: 200 nM

SMILES: CC(C)c1cccc(C(=O)N2CCN(Cc3c(-c4ccc(Cl)cc4)nc4ccccn34)CC2)c1 [Example 33]
IC50 [3, 8]: 2500 nM
IC50 [4, 8]: 2000 nM

SMILES: O=C(C1CCCC1)N1CCN(Cc2c(-c3ccc(F)cc3)nc3ccccn23)CC1 [Example 48]
IC50 [3, 8]: 551 nM
IC50 [4, 8]: 830 nM

SMILES: O=C(C1CCC1)N1CCN(Cc2c(-c3ccc(Cl)cc3)nc3ccccn23)CC1 [Example 18]
IC50 [3, 8]: 242 nM
IC50 [4, 8]: 120 nM

SMILES: CC(C)(C)c1ccc(-c2nc3ccccn3c2CN2CCN(C(=O)c3ccccc3F)CC2)cc1 [Example 65]
IC50 [3, 8]: 1100 nM
IC50 [4, 8]: 750 nM

SMILES: N#Cc1ccc(-c2nc3ccccn3c2CN2CCN(C(=O)C3CCCC3)CC2)cc1 [Example 62]
IC50 [3, 8]: 1200 nM
IC50 [4, 8]: 3100 nM

SMILES: COc1ccccc1C(=O)N1CCN(Cc2c(-c3ccc(Br)cc3)nc3ccccn23)CC1 [Example 12]
IC50 [3, 8]: 409 nM
IC50 [4, 8]: 71 nM

SMILES: CCOc1cccc(C(=O)N2CCN(Cc3c(-c4ccc(Cl)cc4)nc4ccccn34)CC2)n1 [Example 45]
IC50 [3, 8]: 2000 nM
IC50 [4, 8]: 63 nM

SMILES: COc1ccc(Br)c(C(=O)N2CCN(Cc3c(-c4ccc(Cl)cc4)nc4ccccn34)CC2)n1 [Example 42]
IC50 [3, 8]: 310 nM
IC50 [4, 8]: 13 nM

SMILES: O=C(c1cccc(C(F)(F)F)c1)N1CCN(Cc2c(-c3ccc(Cl)cc3)nc3ccccn23)CC1 [Example 25]
IC50 [3, 8]: 1900 nM
IC50 [4, 8]: 820 nM

SMILES: COc1ccc(F)c(C(=O)N2CCN(Cc3c(-c4ccc(Cl)cc4)nc4ccccn34)CC2)c1 [Example 27]
IC50 [3, 8]: 590 nM
IC50 [4, 8]: 120 nM

SMILES: CC(C)c1ccc(-c2nc3ccccn3c2CN2CCN(C(=O)C3CCCC3)CC2)cc1 [Example 54]
IC50 [1, 7]: 4.3 ± 1.3 nM
IC50 [3, 8]: 479 nM
IC50 [2, 7]: 38.2 ± 1.4 nM
IC50 [4, 8]: 225 nM

SMILES: COc1cccc(C(=O)N2CCN(Cc3c(-c4ccc(C(C)C)cc4)nc4ccccn34)CC2)n1 [Example 55]
IC50 [1, 7]: 45 ± 6.7 nM
IC50 [3, 8]: 490 nM
IC50 [2, 7]: 79.6 ± 10.8 nM
IC50 [4, 8]: 141 nM

SMILES: O=C(c1cccc(OC2CCC2)n1)N1CCN(Cc2c(-c3ccc(Cl)cc3)nc3ccccn23)CC1 [Example 41]
IC50 [3, 8]: 1300 nM
IC50 [4, 8]: 190 nM

SMILES: O=C(C1CCCC1)N1CCN(Cc2c(-c3ccc(Cl)cc3)nc3ccccn23)CC1 [Example 2, (4-{[2-(4-Chlorophenyl)imidazo [1,2-a]pyridin-3-yl]methyl}piperazin-1-yl)(cyclopentyl)methanone]
IC50 [1, 7]: 2.8 ± 1.1 nM
IC50 [3, 8]: 63 nM
IC50 [2, 7]: 21.8 ± 2.1 nM
IC50 [4, 8]: 20 nM

SMILES: COc1cccc(C(=O)N2CCN(Cc3c(-c4ccc(Br)cc4)nc4ccccn34)CC2)n1 [Example 47]
IC50 [1, 7]: 4.9 ± 0.4 nM
IC50 [3, 8]: 140 nM
IC50 [2, 7]: 2.3 ± 0.3 nM
IC50 [4, 8]: 18 nM

Next, values leading:

inhibition at 1 µM [1, 5]: 6.3 ± 1.4%
inhibition at 10 µM [1, 5]: 16.9 ± 3.2%
IC50 [1, 6]: > 30000 nM
inhibition at 1 µM [2, 5]: 9.3 ± 3.4%
inhibition at 10 µM [2, 5]: 19.4 ± 4.6%
IC50 [2, 6]: > 30000 nM
SMILES: O=C(c1ccccc1Cl)N1CCN(Cc2c(-c3ccc(Cl)cc3)nc3ccc(-c4ccccc4)cn23)CC1 [drawing 122]

inhibition at 1 µM [1, 5]: 47.2 ± 1.5%
inhibition at 10 µM [1, 5]: 49.9 ± 3.3%
IC50 [1, 6]: > 1000 nM
inhibition at 1 µM [2, 5]: 12.1 ± 1.8%
inhibition at 10 µM [2, 5]: 56.1 ± 2.3%
IC50 [2, 6]: > 1000 nM
SMILES: O=C(c1ccncc1)N1CCN(Cc2c(-c3ccc(Cl)cc3)nc3ccc(C4CC4)cn23)CC1 [drawing 124]

inhibition at 1 µM [1, 5]: 30 ± 3.3%
inhibition at 10 µM [1, 5]: 59.9 ± 1.7%
IC50 [1, 6]: > 1000 nM
inhibition at 1 µM [2, 5]: 29.7 ± 2.6%
inhibition at 10 µM [2, 5]: 56.1 ± 4.6%
IC50 [2, 6]: > 1000 nM
SMILES: O=C(c1cccc(F)c1)N1CCN(Cc2c(-c3ccc(Cl)cc3)nc3ccc(C4CC4)cn23)CC1 [drawing 123]

inhibition at 1 µM [1, 5]: 49.6 ± 6.7%
inhibition at 10 µM [1, 5]: 75 ± 3.5%
IC50 [1, 6]: > 1000 nM
inhibition at 1 µM [2, 5]: 34.6 ± 2.7%
inhibition at 10 µM [2, 5]: 73.6 ± 3.7%
IC50 [2, 6]: > 1000 nM
SMILES: COc1cccc(-c2nc3ccccn3c2CN2CCN(C(=O)C3CCC3)CC2)c1 [drawing 125]

IC50 [3, 9]: 30000 nM
IC50 [4, 9]: 2200 nM
SMILES: O=C(c1ccccc1Cl)N1CCN(Cc2c(-c3ccc(Cl)cc3)nc3ccc(-c4ccccc4)cn23)CC1 [WO 2014/187922 Example 64, reference compound]

IC50 [3, 8]: 67 nM
IC50 [4, 8]: 9.1 nM
SMILES: COc1ccc(C)c(C(=O)N2CCN(Cc3c(-c4ccc(Br)cc4)nc4ccccn34)CC2)n1 [Example 74]

inhibition at 1 µM [1, 5]: 27.7 ± 4.5%
inhibition at 10 µM [1, 5]: 55.2 ± 1.7%
IC50 [1, 6]: > 1000 nM
inhibition at 1 µM [2, 5]: 8.1 ± 2.6%
inhibition at 10 µM [2, 5]: 48.2 ± 4.3%
IC50 [2, 6]: > 10000 nM
SMILES: O=C(c1cnccn1)N1CCN(Cc2c(-c3ccc(Cl)cc3)nc3ccc(C4CC4)cn23)CC1 [drawing 126]

IC50 [3, 8]: 71 nM
IC50 [4, 8]: 3 nM
SMILES: COc1ccc(C)c(C(=O)N2CCN(Cc3c(-c4ccc(Cl)cc4)nc4ccccn34)CC2)n1 [Example 72]

IC50 [3, 9]: 30000 nM
IC50 [4, 9]: 4800 nM
SMILES: O=C(c1cccc(F)c1)N1CCN(Cc2c(-c3ccc(Cl)cc3)nc3ccc(C4CC4)cn23)CC1 [WO 2014/187922 Example 178, reference compound]
